Literature values, collected in US20170096549A1, “MULTIVALENT CATION FORMULATIONS OF PARTIALLY DESULFATED HEPARINS” (Cantex Pharmaceuticals, Inc., priority 2014, published 2017).
pKd: −log10 of the molar value. Read-outs that look alike come from different tables or passages of the source.

Columns and labels:
IIa = IIa (Homo sapiens, UniProt P00734+P01008)
Xa = Xa (Homo sapiens, UniProt P00742)
anti-thrombin III = anti-thrombin III (Homo sapiens, UniProt P01008)
Sequence of anti-thrombin III (P01008 33-464, species assumed): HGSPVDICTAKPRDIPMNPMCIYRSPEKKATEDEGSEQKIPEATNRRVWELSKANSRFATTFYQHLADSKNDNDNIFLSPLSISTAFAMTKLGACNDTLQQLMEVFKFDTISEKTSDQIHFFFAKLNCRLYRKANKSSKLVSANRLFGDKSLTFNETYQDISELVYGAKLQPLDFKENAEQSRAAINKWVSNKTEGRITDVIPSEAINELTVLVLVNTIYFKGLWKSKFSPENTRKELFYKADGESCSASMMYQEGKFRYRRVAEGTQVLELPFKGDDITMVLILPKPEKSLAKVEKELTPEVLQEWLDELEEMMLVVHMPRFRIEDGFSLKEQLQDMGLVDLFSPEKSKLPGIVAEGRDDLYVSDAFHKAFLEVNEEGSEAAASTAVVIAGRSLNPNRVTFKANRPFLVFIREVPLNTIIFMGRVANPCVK

Sequence of Xa (P01008 33-464 partner): as the sequence (P01008 33-464, species assumed) above
Sequence of Xa (P00742 235-488 limits assumed): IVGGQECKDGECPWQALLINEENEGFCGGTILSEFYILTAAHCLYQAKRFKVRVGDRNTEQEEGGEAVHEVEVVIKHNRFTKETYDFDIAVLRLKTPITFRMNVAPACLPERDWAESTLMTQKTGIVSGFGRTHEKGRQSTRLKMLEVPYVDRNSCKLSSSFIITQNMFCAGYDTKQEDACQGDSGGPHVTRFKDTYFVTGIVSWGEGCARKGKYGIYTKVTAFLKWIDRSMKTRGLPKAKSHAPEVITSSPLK

- anti-IIa activity (IIa): 165-190 U/mg
- anti-Xa activity (Xa): 165-190 U/mg
- Kd for anti-thrombin III (anti-thrombin III): ~22 µg/mL
- pKd (anti-thrombin III; listed as heparin): 5.81
- pKd (anti-thrombin III; listed as unfractionated heparin): ~5.81
Substance: Unfractionated heparin
- anti-coagulant activity in the USP anti-coagulant assay (anti-coagulant activity): 165-190 U/mg
